Results reported in patent US3984548A, “Substituted pyrido[1,2,3,-de]-1,4-benzoxazines as bactericides” (Riker Laboratories, Inc., priority 1974, dated 1976).

Columns and labels:
Format in all cases: cell-based
Parameters in all cases: key: +: active; -: inactive
Details in all cases: agar plates, 1 to 100 milligrams/liter
[1] = test system: Streptococcus Sp; assay: standard plate dilution method, Streptococcus sp.
Description: (§1) The culture medium employed permits susceptibility testing of fastidious microorganisms towards antibiotics, sulfonamides and other chemotherapeutic agents. Tryptone soy agar (oxoid) of the following composition is the culture medium. In the test procedure, the amount of a compound required to give complete inhibition or no inhibition of the microbial growth on the agar plates was determined. The compound selected for evaluation is added to the agar medium to give concentrations of one, ten and one hundred milligrams per liter. A series of plates with these concentrations is prepared. Plates containing agar alone are included as controls. Ten percent horse serum is added to one series of such plates. Aliquots of broth culture of each of nine species of microorganisms are innoculated onto the agar plates containing the various compound concentrations and onto the control plates. The plates are incubated at 37° C. in a 10 percent carbon dioxide atmosphere for 18 to 25 hours. The microbial growth on each plate is read visually, and minimal inhibitory concentrations are recorded.

[2] = test system: Staphylococcus aureus; assay: standard plate dilution method, Staphylococcus aureus
Description: as §1

[3] = test system: Pseudmonas aeruginosa; assay: standard plate dilution method, Pseudomonas aeruginosa
Description: as §1

[4] = test system: Bacillus Subtilus; assay: standard plate dilution method, Bacillus subtilus
Description: as §1

[5] = test system: Escherichia coli; assay: standard plate dilution method, Escherichia coli
Description: as §1

[6] = test system: Mima polymorpha; assay: standard plate dilution method, Mima polymorpha
Description: as §1

[7] = test system: Herellea vaginicola; assay: standard plate dilution method, Herellea vaginicola
Description: as §1

Row | SMILES | Microorganism SS (growth inhibition) [1] | Microorganism SA (growth inhibition) [2] | Microorganism PA (growth inhibition) [3] | Microorganism BS (growth inhibition) [4] | Microorganism EC (growth inhibition) [5] | Microorganism MP (growth inhibition) [6] | Microorganism HV (growth inhibition) [7]
1 | CCOC(=O)c1cn2c3c(cc(C)cc3c1=O)OCC2C (centres unmarked) [Example 1, ethyl 2,3-dihydro-3,9-dimethyl-7-oxo-7H-pyrido[1,2,3-de]-1,4-benzoxazine-6-carboxylate] | - | + | - | + | + | - | +
2 | CCOC(=O)c1cn2c3c(cc(Cl)cc3c1=O)OCC2C (centres unmarked) [Example 4, ethyl 9-chloro-2,3-dihydro-3-methyl-7-oxo-7H-pyrido[1,2,3-de]-1,4-benzoxazine-6-carboxylate] | - | + | - | + | + | - | +
3 | CCOC(=O)c1cn2c3c(ccc(F)c3c1=O)OCC2C (centres unmarked) [Example 5, ethyl 2,3-dihydro-8-fluoro-3-methyl-7-oxo-7H-pyrido[1,2,3-de]-1,4-benzoxazine-6-carboxylate] | - | - | - | + | + | - | +
4 | CCOC(=O)c1cn2c3c(cc(F)cc3c1=O)OCC2C (centres unmarked) [Example 6, ethyl 2,3-dihydro-9-fluoro-3-methyl-7-oxo-7H-pyrido[1,2,3-de]-1,4-benzoxazine-6-carboxylate] | - | + | + | + | + | - | +
5 | Cc1cc2c3c(c1)c(=O)c(C(=O)O)cn3C(C)CO2 (centres unmarked) [Example 16, 2,3-dihydro-3,9-dimethyl-7-oxo-7H-pyrido[1,2,3-de]-1,4-benzoxazine-6-carboxylic acid] | + | + | - | + | + | - | +
6 | CC1COc2ccc(Cl)c3c(=O)c(C(=O)O)cn1c23 (centres unmarked) [Example 17, 8-chloro-2,3-dihydro-3-methyl-7-oxo-7H-pyrido[1,2,3-de]-1,4-benzoxazine-6-carboxylic acid] | + | - | - | + | + | - | +
7 | O=C(O)c1cn2c3c(cccc3c1=O)OCC2 [Example 18, 2,3-dihydro-7-oxo-7H-pyrido[1,2,3-de]-1,4-benzoxazine-6-carboxylic acid] | - | - | - | + | - | - | -
8 | CC1COc2cccc3c(=O)c(C(=O)O)cn1c23 (centres unmarked) [Example 19, 2,3-dihydro-3-methyl-7-oxo-7H-pyrido[1,2,3-de]-1,4-benzoxazine-6-carboxylic acid] | - | + | - | + | + | - | +
9 | COc1cc2c3c(c1)c(=O)c(C(=O)O)cn3C(C)CO2 (centres unmarked) [Example 20, 2,3-dihydro-9-methoxy-3-methyl-7-oxo-7H-pyrido[1,2,3-de]-1,4-benzoxazine-6-carboxylic acid] | - | + | - | + | + | - | +
10 | CC1COc2c(F)ccc3c(=O)c(C(=O)O)cn1c23 (centres unmarked) [Example 21, 2,3-dihydro-10-fluoro-3-methyl-7-oxo-7H-pyrido[1,2,3-de]-1,4-benzoxazine-6-carboxylic acid] | + | + | - | + | + | - | +
11 | CC1COc2c(Cl)ccc3c(=O)c(C(=O)O)cn1c23 (centres unmarked) [Example 22, 10-chloro-2,3-dihydro-3-methyl-7-oxo-7H-pyrido[1,2,3-de]-1,4-benzoxazine-6-carboxylic acid] | + | + | + | + | + | + | +
12 | CC1COc2cc(Cl)cc3c(=O)c(C(=O)O)cn1c23 (centres unmarked) [Example 23, 9-chloro-2,3-dihydro-3-methyl-7-oxo-7H-pyrido[1,2,3-de]-1,4-benzoxazine-6-carboxylic acid] | + | + | - | + | + | - | +
13 | CC1COc2cc(F)cc3c(=O)c(C(=O)O)cn1c23 (centres unmarked) [Example 24, 9-fluoro-2,3-dihydro-3-methyl-7-oxo-7H-pyrido[1,2,3-de]-1,4-benzoxazine-6-carboxylic acid] | + | + | + | + | + | - | +
14 | CC1COc2ccc(F)c3c(=O)c(C(=O)O)cn1c23 (centres unmarked) [Example 25, 8-fluoro-2,3-dihydro-3-methyl-7-oxo-7H-pyrido[1,2,3-de]-1,4-benzoxazine-6-carboxylic acid] | + | - | - | + | + | - | +
15 | Cc1ccc2c3c1c(=O)c(C(=O)O)cn3C(C)CO2 (centres unmarked) [Example 26, 8-methyl-2,3-dihydro-3-methyl-7-oxo-7H-pyrido[1,2,3-de]-1,4-benzoxazine-6-carboxylic acid] | + | + | - | + | + | - | +
16 | Cc1c(Cl)cc2c(=O)c(C(=O)O)cn3c2c1OCC3C (centres unmarked) [Example 34 (acid)] | + | + | + | + | + | + | +
17 | CCOC(=O)c1cn2c3c(c(C)c(Cl)cc3c1=O)OCC2C (centres unmarked) [Example 34 (ester)] | + | + | + | + | + | + | +
18 | Cc1cc(Cl)c2c3c1c(=O)c(C(=O)O)cn3C(C)CO2 (centres unmarked) [Example 37 (acid)] | + | + | + | + | + | + | +
19 | CCOC(=O)c1cn2c3c(c(Cl)cc(C)c3c1=O)OCC2C (centres unmarked) [Example 37 (ester)] | - | - | - | + | - | - | -
20 | CC1COc2c(Cl)cc([N+](=O)[O-])c3c(=O)c(C(=O)O)cn1c23 (centres unmarked) [Example 38 (acid)] | - | + | - | + | + | - | +
